# Patent publication US20160122320A1, “USEFUL COMBINATIONS OF MONOBACTAM ANTIBIOTICS WITH BETA-LACTAMASE INHIBITORS” (Basilea Pharmaceutica AG, priority 2005, published 2016)
# Experiments:
# Assay in all cases: MIC, NCCLS broth microdilution
# Assay type in all cases: cell-based
# Acinetobacter sp. J2 = conditions: Acinetobacter sp. J2; MIC of antibiotic compound 1 with the labelled bridged monobactam of formula II and clavulanate, 4 mg/L each
# [1] = test system: Pseudomonas aeruginosa MK1184; conditions: MIC of antibiotic compound 1 with the labelled bridged monobactam of formula II and clavulanate, 4 mg/L each
# [2] = test system: Pseudomonas aeruginosa 1973E; conditions: MIC of antibiotic compound 1 with the labelled bridged monobactam of formula II and clavulanate, 4 mg/L each
# Summary of the method: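 Broth microdilution following NCCLS M7-A5, with final DMSO ≤1%. Plates were incubated overnight at 30° C. or 37° C. and growth was read by eye; MIC is the lowest concentration giving complete inhibition of visible growth. In combination tests the formula I compound was serially diluted while partner compounds were held at 4 μg/mL each.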
# Enterobacter cloacae P99 = conditions: MIC of antibiotic compound 1 with the labelled bridged monobactam of formula II and clavulanate, 4 mg/L each
# [3] = test system: Klebsiella pneumoniae CF104; conditions: MIC of antibiotic compound 1 with the labelled bridged monobactam of formula II and clavulanate, 4 mg/L each
# Serratia marcescens S6 = conditions: MIC of antibiotic compound 1 with the labelled bridged monobactam of formula II and clavulanate, 4 mg/L each
# [4] = test system: Stenotrophomonas malthophilia 1AC736; conditions: Stenotrophomonas malthophilia 1AC736; MIC of antibiotic compound 1 with the labelled bridged monobactam of formula II and clavulanate, 4 mg/L each
# Description: Antimicrobial activity of the compounds and of their combinations was determined against a selection of organisms according to the standard procedures described by the National Committee for Clinical Laboratory Standards (National Committee for Clinical Laboratory. Standards (2000). Methods for Dilution Antimicrobial Susceptibility Tests for Bacteria That Grow Aerobically-Fifth Edition: Approved Standard M7-A5. NCCLS, Wayne, Pa., USA).
# In all cases the final concentration of DMSO incubated with the bacteria is less than or equal to 1%. […] Plates were incubated overnight at an appropriate temperature (30° C. or 37° C.) and optical densities assessed by eye. The MIC value is defined as the lowest compound concentration completely inhibiting visible growth of the test organism. When combinations between compounds of formula I with compounds of formula II and are evaluated the compounds of formula I are tested in dilution series as described above while the compounds of formula II and III-XIII were present in all wells at a constant concentration of 4 μg/mL each.
SMILES,MIC of antibiotic at fixed inhibitor concentration (4 mg/L) (Acinetobacter sp. J2),MIC of antibiotic at fixed inhibitor concentration (4 mg/L) [1],MIC of antibiotic at fixed inhibitor concentration (4 mg/L) [2],MIC of antibiotic at fixed inhibitor concentration (4 mg/L) (Enterobacter cloacae P99),MIC of antibiotic at fixed inhibitor concentration (4 mg/L) [3],MIC of antibiotic at fixed inhibitor concentration (4 mg/L) (Serratia marcescens S6),MIC of antibiotic at fixed inhibitor concentration (4 mg/L) [4]
"CN(C)c1ccc(NC(=O)N2CC[C@@H]3[C@H]2C(=O)N3S(=O)(=O)[O-])cc1.[Na+] [Compound 309, Sodium(1S,5R)-2-{N-[4-(dimethylamino)phenyl]carbamoyl}-7-oxo-2,6-diazabicyclo[3.2.0]heptane-6-sulfonate]",>32 µg/mL,>32 µg/mL,4 µg/mL,32 µg/mL,2 µg/mL,0.5 µg/mL,0.125 µg/mL
"CN(C)CCNC(=O)c1ccc(NC(=O)N2CC[C@@H]3[C@H]2C(=O)N3S(=O)(=O)[O-])cc1.[Na+] [Compound 310, Sodium(1S,5R)-2-[N-(4-{N-[2-(dimethylamino)ethyl]carbamoyl}phenyl)carbamoyl]-7-oxo-2,6-diazabicyclo[3.2.0]heptane-6-sulfonate]",>32 µg/mL,16 µg/mL,4 µg/mL,4 µg/mL,2 µg/mL,0.5 µg/mL,0.125 µg/mL
NC(=O)c1ccc(NC(=O)N2CC[C@@H]3[C@H]2C(=O)N3S(=O)(=O)[O-])cc1.[Na+] [Compound 311],4 µg/mL,>32 µg/mL,4 µg/mL,8 µg/mL,0.5 µg/mL,0.25 µg/mL,0.125 µg/mL
"NC(=O)CNC(=O)c1ccc(NC(=O)N2CC[C@@H]3[C@H]2C(=O)N3S(=O)(=O)[O-])cc1.[Na+] [Compound 312, Sodium(1S,5R)-2-(N-{4-[N-(carbamoylmethyl)carbamoyl]phenyl}carbamoyl)-7-oxo-2,6-diazabicyclo[3.2.0]heptane-6-sulfonate]",>32 µg/mL,>32 µg/mL,8 µg/mL,8 µg/mL,4 µg/mL,0.5 µg/mL,0.125 µg/mL
COc1cc(CNC(=O)N2CC[C@@H]3[C@H]2C(=O)N3S(=O)(=O)[O-])on1.[Na+] [Compound 313],4 µg/mL,>32 µg/mL,4 µg/mL,16 µg/mL,0.5 µg/mL,0.25 µg/mL,0.125 µg/mL
O=C(NCc1cccs1)N1CC[C@@H]2[C@H]1C(=O)N2S(=O)(=O)[O-].[Na+] [Compound 314],4 µg/mL,>32 µg/mL,4 µg/mL,32 µg/mL,1 µg/mL,0.25 µg/mL,0.125 µg/mL
NC(=O)Nc1ccc(NC(=O)N2CC[C@@H]3[C@H]2C(=O)N3S(=O)(=O)[O-])cc1.[Na+] [Compound 315],4 µg/mL,>32 µg/mL,4 µg/mL,8 µg/mL,1 µg/mL,0.25 µg/mL,0.125 µg/mL
O=C(Nc1ccc(O)cc1)N1CC[C@@H]2[C@H]1C(=O)N2S(=O)(=O)[O-].[Na+] [Compound 316],16 µg/mL,32 µg/mL,4 µg/mL,8 µg/mL,0.5 µg/mL,0.25 µg/mL,0.125 µg/mL
O=C(Nc1cccc(O)c1)N1CC[C@@H]2[C@H]1C(=O)N2S(=O)(=O)[O-].[Na+] [Compound 317],16 µg/mL,>32 µg/mL,8 µg/mL,8 µg/mL,0.5 µg/mL,0.25 µg/mL,0.125 µg/mL
"O=C(Nc1ccc2[nH]c(=O)[nH]c2c1)N1CC[C@@H]2[C@H]1C(=O)N2S(=O)(=O)[O-].[Na+] [Compound 319, Sodium(1S,5R)-7-oxo-2-[N-(2-oxo(3-hydrobenzimidazol-5-yl))carbamoyl]-2,6-diazabicyclo[3.2.0]heptane-6-sulfonate]",>32 µg/mL,>32 µg/mL,4 µg/mL,16 µg/mL,0.25 µg/mL,0.25 µg/mL,0.125 µg/mL
"CCOC(=O)c1cccc(NC(=O)N2CC[C@@H]3[C@H]2C(=O)N3S(=O)(=O)[O-])c1.[Na+] [Compound 320, Sodium(1S,5R)-2-{N-[3-(ethoxycarbonyl)phenyl]carbamoyl}-7-oxo-2,6-diazabicyclo[3.2.0]heptane-6-sulfonate]",>32 µg/mL,>32 µg/mL,8 µg/mL,8 µg/mL,0.5 µg/mL,0.25 µg/mL,0.125 µg/mL
"O=C(Nc1cccc(CO)c1)N1CC[C@@H]2[C@H]1C(=O)N2S(=O)(=O)[O-].[Na+] [Compound 321, Sodium(1S,5R)-2-{N-[3-(hydroxymethyl)phenyl]carbamoyl}-7-oxo-2,6-diazabicyclo[3.2.0]heptane-6-sulfonate]",16 µg/mL,>32 µg/mL,4 µg/mL,>32 µg/mL,1 µg/mL,0.25 µg/mL,0.125 µg/mL
"O=C(Nc1ccc(NC(=O)N2CC[C@@H]3[C@H]2C(=O)N3S(=O)(=O)O)cc1)N1CCNCC1 [Compound 326, (1S,5R)-7-oxo-2-{N-[4-(piperazinylcarbonylamino)phenyl]carbamoyl}-2,6-diazabicyclo[3.2.0]heptane-6-sulfonic acid]",4 µg/mL,32 µg/mL,4 µg/mL,8 µg/mL,>32 µg/mL,0.125 µg/mL,0.125 µg/mL
"Nc1ccc(NC(=O)N2CC[C@@H]3[C@H]2C(=O)N3S(=O)(=O)[O-])cc1.[Na+] [Compound 327, Sodium(1S,5R)-2-[N-(4-aminophenyl)carbamoyl]-7-oxo-2,6-diazabicyclo[3.2.0]heptane-6-sulfonate]",2 µg/mL,>32 µg/mL,2 µg/mL,32 µg/mL,2 µg/mL,0.25 µg/mL,0.125 µg/mL
Nc1nc(CC(=O)N2CC[C@@H]3[C@H]2C(=O)N3S(=O)(=O)O)cs1 [Compound 401],4 µg/mL,>32 µg/mL,8 µg/mL,16 µg/mL,0.5 µg/mL,0.125 µg/mL,0.125 µg/mL
"NC(=O)c1cnccc1C(=O)NCC(=O)N1CC[C@@H]2[C@H]1C(=O)N2S(=O)(=O)O [Compound 402, (1S,5R)-2-{2-[(3-carbamoylpyridyl-4)carbonylamino]acetyl}-7-oxo-2,6-diazabicyclo[3.2.0]heptane-6-sulfonic acid]",8 µg/mL,32 µg/mL,4 µg/mL,32 µg/mL,<0.06 µg/mL,0.25 µg/mL,<0.06 µg/mL
